From patent publication US20100166726A1, “COMPOSITIONS FOR IMPROVING CELLULAR UPTAKE OF A CHEMOTHERAPEUTIC AGENT IN A CELL EXHIBITING MUCIN DEREGULATION” (NORTHEASTERN UNIVERSITY, priority 2007, published 2010)

Legend:
[1] = tested on: Capan-1 cells; test: 5-FU cytotoxicity with or without benzyl-α-GalNAc pre-exposure, sulforhodamine B assay; assay type: cell-based, human
[2] = tested on: U-87 MG cells; test: as above; assay type: cell-based, human
[3] = tested on: HPAF-II cells; test: as above; assay type: cell-based, human
Description: The effects of increasing benzyl-α-GalNAc concentrations on cytotoxicity of 5-FU (108 μmol/ml) against HPAF-II cells was first tested. […] The growth inhibitory effect of 5-FU after 24 hr of exposure was determined using sulforhodamine B (Sigma-Aldrich, St. Louis, Mo.) assay the percent of viable cells was calculated as follows: […]

[4] = tested on: HPAF-II cells; test: Neuraminidase toxicity and effect on 5-FU cytotoxicity, sulforhodamine B assay; assay type: cell-based, human
Description: The enzyme neuraminidase, which cleaves terminal sialic acid residues, was used in these studies (Varki et al., J. Biol. Chem., 258:12465-12471 [1983]). […] The removal of sialic acid residues from cell surface was confirmed by labeling cells with 5 μl/well FITC conjugated MAA lectin for 30 mins. The effects of neuraminidase on CD227 antibody association was determined by labeling cells with 5 μl/well CD227 antibody for 4 hr. […] The effects of neuraminidase on 5-FU cytotoxicity was determined by exposing cells to 0.05 U/ml neuraminidase for 1 hr followed by treatment with 5-FU for 24 hr. Percent cell viability was determined using sulforhodamine B assay.

[5] = tested on: U-87 MG cells; test: Intracellular uptake of 5-FU by immunofluorescence labeling; assay type: cell-based, human
Description: (§1) Capan-1 and U-87 MG cells were exposed to the maximum non-toxic concentration of benzyl-α-GalNAc for 48 hr followed by 1 hr and 4 hr exposure to 5-FU (50 μmol/ml). The intracellular levels of the drug were determined using a primary antibody against 5-FU followed by FITC-conjugated secondary antibody. Specifically, sterile cover slips were placed in 24-well plates (Corning, N.Y.). Cells were seeded at 2×10^4 per ml in the same 24-well plates. Following a 24 hr incubation period at 37° C. cells was exposed to the maximum non-toxic concentration of benzyl-α-GalNAc solution prepared in cell culture media, the control cells were incubated in growth media without the O-glycosylation inhibitor. Following an additional 48 hr of incubation, each row was washed with 1×PBS and treated with 5-FU prepared in cell growth medium. The intracellular uptake of 5-FU following 1 hr and 4 hr of cell exposure to drug was determined by immunofluorescence labeling. Briefly, the medium containing 5-FU was aspirated and cells were washed twice with 1×PBS. The cells were then fixed with cold methanol for 10 min at −20° C. followed by rinsing with cold acetone. The cells were next washed twice with 1×PBS followed by 30 min rehydration in 1×PBS. For immunolabeling, cells were exposed to 200 μl (1:1000 dilution; stock concentration: 1 mg/ml) of primary antibody against 5-FU (Lampire Biological Laboratories, Pipersville, Pa.) for 1 hr at room temperature. The unassociated primary antibody was removed by washing three times with 1×PBS and cells were then incubated at room temperature with 200 μl (1:1000 dilution; stock concentration: 1 mg/ml) of fluorescein isothiocyanate (FITC)-conjugated goat anti-mouse IgG secondary antibody (Lampire Biological Laboratories, Pipersville, Pa.). Following 1 hr incubation with the secondary antibody, cells were washed twice with 1×PBS to remove any unassociated secondary antibody and the fluorescence intensity was measured using a fluorescence microplate reader (Bio-Tek® Instruments Inc., VT) at excitation wavelength of 485 nm and emission wavelength of 528 nm. The intracellular uptake of 5-FU was observed under a fluorescence microscope. The coverslip from each well was mounted onto a glass microslide (Corning, N.Y.) with SlowFade® Gold antifade reagent (Invitrogen, Carlsbad, Calif.). The images were captured using a combination of fluorescence and DIC microscopic applications at 20× magnification (Olympus BX61WI-Melville, N.Y.).

[6] = tested on: Capan-1 cells; test: as above
Description: as §1

[7] = tested on: Capan-1 tumors; test: Anti-tumoral activity in Capan-1 pancreatic tumor model (tumor volume, histochemical staining, neoplastic cell density); assay type: in vivo, SCID mice
Description: All animal work was performed in the animal facility at Northeastern University, Boston, Mass. in accordance with the institutional guidelines. Female SCID (severe combined immunodeficient mice), 6 to 8 weeks old purchased from Massachusetts General Hospital, Boston, Mass. were used for our study since they have been used successfully for developing human xenografts of pancreatic tumors. To establish the tumors, 2.5×10^6 Capan-I cells in 0.1 ml of cell culture medium were injected into the subcutaneous dorsa of all mice. Mice were weighed daily using a digital weighing balance (AccuSeries®, Fisher Scientific, Arvada, Colo.) and tumor volumes were also measured every day using an electronic digital caliper (Control Company, Friendswood, Tex.). Tumor volumes were calculated using the formula a^2×b×0.52, where “a” is the longer diameter and “b” is the shorter diameter. Once the tumor volumes were approximately 50 mm^3-70 mm^3 the experimental groups received intratumoral injections of benzyl-α-GalNAc (0.1 ml injection; 10 mg/ml) whereas […] at intervals of 48 hr. When the tumor volumes were approximately 100 mm^3 5-FU was administered via the intravenous route. Animals in treatment groups received two injections (0.1 ml) of 5-FU at interval of 4 days whereas control mice received saline (0.1 ml). The total dose of 5-FU administered was 125 mg/kg. At the end of the experiment animals were sacrificed, tumor tissue was surgically removed and fixed in 10% formalin at 4° C. for histochemical staining.
For histochemical staining, paraffin-embedded tissue sections (5 μm) were stained with hematoxylin and eosin (H&E) to evaluate and compare the extent of tissue viability. The tumor sections were scanned and qualitative images captured using brightfield microscopy (Olympus BX61WI, NY). The number of tumor cells in each section was quantified using bioquant imaging software and expressed as percent of total tumor area. To quantify the total tumor area we first traced the outline of the entire tumor section in each field of view (FOV). The pixels within the traced area were then selected and the pixel count was determined by the software. A total of five FOV were analyzed to determine the total pixel count of the tumor area. Microscope stage encoders were used to ensure that no tumor area was counted more than once. Similarly the total pixel count of the neoplastic cells featured in blue in each FOV was determined. The total percent of neoplastic cell density was calculated as follows: […]
For these studies the pancreatic cell line, Capan-1 was used to used to establish a pancreatic tumor model. Capan-1 tumors were established in subcutaneous dorsa of female SCID mice (see, Example 7). […] 5-FU therapy began when the tumor size was approximately 100 mm^3.

[8] = tested on: Capan-1 cells; test: Cytotoxic activity of chemotherapeutic agents with or without benzyl-α-GalNAc pretreatment, sulforhodamine B assay; assay type: cell-based, human; settings: benzyl-α-GalNAc 48 hr, then drug 24 hr
Description: Human pancreatic cancer cell morphology was visualized using light microscopy. Six hydrophilic chemotherapeutic agents namely cisplatin, gemcitabine, carboplatin, methotrexate, doxorubicin, vinblastine and six lipophilic agents namely lomustine, busulfan, camptothecin, etoposide, teniposide and paclitaxel with molecular weights ranging from approximately 200 to 900 were used. Two different concentrations of each drug type were evaluated in the presence and absence of heavily O-glycosylated chains with Benzyl-α-GalNAc as O-glycosylation inhibitor. Cell viability was determined using Sulforhodamine B assay. The percent change in cell viability was used to assess the overall benefit of reducing mucin in Capan-1 cells when different cytotoxic drugs are employed.
The growth inhibitory effect of the chemotherapeutic agent after 24 hr of exposure was determined by sulforhodamine B assay and percent of viable cells was calculated as follows: […]

[9] = 5-FU exposure 1 h, Benzyl-α-GalNAc + (48 hr pre-treatment)
[10] = 5-FU exposure 1 h, Benzyl-α-GalNAc −
[11] = 5-FU exposure 4 h, Benzyl-α-GalNAc + (48 hr pre-treatment)
[12] = 5-FU exposure 4 h, Benzyl-α-GalNAc −

## O=c1[nH]cc(F)c(=O)[nH]1 [5-FU, 5-fluorouracil]
[1]; 5-FU (80 μmol/ml) alone
  percent viability: 65.9±2%
[1]; benzyl-α-GalNAc (0.4 mg/ml) followed by 5-FU (80 μmol/ml)
  percent viability: 53.6±3.6%
[2]; 5-FU alone
  percent cell viability: 37%
[2]; benzyl-α-GalNAc (0.8 mg/ml) prior to 5-FU
  percent cell viability: 37%
[3]; 5-FU (108 μmol/ml) alone, 24 hr
  percent viability: 77.1±2.5%
[3]; pretreated with benzyl-α-GalNAc 0.8 mg/ml for 48 hr, then 5-FU (108 μmol/ml) 24 hr
  percent viability: 63.4±8.6%
[4]
  percent viability vs 5-FU alone: not significantly altered
[4]; human, 24 hr
  percent viability: 49%±4.6
[5]; [9]
  Intracellular uptake of 5-Fluorouracil, fluorescence intensity: 2346.9 arbitrary units
[5]; [10]
  Intracellular uptake of 5-Fluorouracil, fluorescence intensity: 3757.0 arbitrary units
[5]; [11]
  Intracellular uptake of 5-Fluorouracil, fluorescence intensity: 2989.4 arbitrary units
[5]; [12]
  Intracellular uptake of 5-Fluorouracil, fluorescence intensity: 3704.9 arbitrary units
[5]; 1 hr or 4 hr of exposure to 5-FU (50 μmol/ml)
  staining patterns of 5-FU (imaging), pre-treated with benzyl-α-GalNAc: did not alter
[6]; [9]
  Intracellular uptake of 5-Fluorouracil, fluorescence intensity: 7271.4 arbitrary units
[6]; [10]
  Intracellular uptake of 5-Fluorouracil, fluorescence intensity: 1696.9 arbitrary units
[6]; [11]
  Intracellular uptake of 5-Fluorouracil, fluorescence intensity: 3933.3 arbitrary units
[6]; [12]
  Intracellular uptake of 5-Fluorouracil, fluorescence intensity: 4253.0 arbitrary units
[6]; 1 hr of exposure to 5-FU (50 μmol/ml)
  fluorescence staining of intracellular 5-FU (imaging), pre-treated with benzyl-α-GalNAc vs 5-FU alone: higher fluorescence staining
[6]; 4 hr of exposure to 5-FU (50 μmol/ml)
  fluorescence staining of intracellular 5-FU (imaging), pre-treated with benzyl-α-GalNAc vs controls: no difference
[7]; H&E stained sections
  histochemical staining of tumor sections, neoplastic cells: fewer tumor cells
[7]; benzyl-α-GalNAc intratumoral days 4, 6, 8, 10, 5-FU intravenous, total 125 mg/kg
  tumor volume compared to control tumors (saline group): significantly lower
[7]; bioquant imaging software, tumor sections at end of experiment
  Percent Tumor Area (neoplastic cell density as percent of total tumor area): 21.0 ± 1.4%

## CC[C@@]1(O)C(=O)OCc2c1cc1n(c2=O)Cc2cc3ccccc3nc2-1 [Camptothecin]
[8]
  Percent increase in chemotherapeutic activity (chemotherapeutic benefit) when pretreated with benzyl-α-GalNAc: 34%
